Results published in US20050060100A1, “Computer software and algorithms for systems biologically linked to cellular phenotype” (Becton Dickinson and Company, priority 2003, published 2005).

Test system: MC3T3-E1 osteoblast cells
Test: ECM screen: adhesion of MC3T3-E1 cells to immobilized adhesion ligands (fluorescent nuclei count)
Assay type: cell-based
Settings: "best factors" approach
Description: A statistical design was developed with special consideration of the surface chemistry requirements. In particular, in this experiment the scenario shown in FIG. 9 was used, wherein the overall adhesion ligand density was kept constant from well to well and only the adhesion ligand composition was allowed to change. In other words, the concentration of a single adhesion ligand could be different from well to well, but each well has the same amount of adhesion ligand immobilized overall. This scenario is further described above. An example of such design is shown in the spreadsheet in FIG. 10. The spreadsheet serves as a computer representation of the design which is stored in a database. The top row in […] lists the 10 factors […] used in this particular screen, and their corresponding identities. In the spreadsheet shown, Factor A represents fibronectin, Factor B represents Collagen I, etc. The first column is a list of the experimental points that translate into a well in the 96-well plate, e.g., 52 wells in this case. The numbers in the spreadsheet are the factor levels. In this example, these levels are the actual volumes (in μL) of factor that are added to a particular well. In this particular design, factors get added to the wells at three volumes, e.g., 5 μL, 25 μL, or 50 μL. The total well volume in this case is 50 μL. Thus, for wells where one factor is added at 50 μL, the final well composition will comprise a single adhesion ligand covalently immobilized on the well surface. Accordingly, if 25 μL of a factor is added to a well, a second factor is added at 25 μL also, and the final well composition will comprise a mixture of two different cell adhesion ligands covalently immobilized on the well surface. When 5 μL of a factor are added, nine other factors are added at 5 μL each, as well, thus resulting in wells that comprise a mixture of all 10 cell adhesion ligands on the well surface. These experimental points containing all 10 adhesion ligands are called “mid points” and are an integral part of the statistical design in this example.
With reference now to FIG. 11, a 96-well plate layout is shown, which was translated from the particular statistical design shown in FIG. 10. In particular, the 96-well plate includes the well compositions indicated in FIG. 10, e.g., cell adhesion ligand combinations immobilized at the bottom of each well. In particular, the experimental runs in FIG. 10 correspond to rows/columns in FIG. 11, as follows: runs 1-10 in the design in FIG. 10 represent row B, columns 2-11, respectively on the array in FIG. 11; runs 11-20 represent row C, columns 2-11; runs 21-30 represent row D, columns 2-11; runs 31-40 represent row E, columns 2-11; runs 41-50 represent row F, columns 2-11; and runs 51 and 52 represent row G, columns 2 and 3, respectively. As shown by the statistical design in FIG. 10 and the corresponding 96-well plate layout in FIG. 11 it is an embodiment of the present invention that, in addition to mixtures of agents, single agents can be placed in the receptacles.
Cells were removed from cell culture flasks using trypsin-EDTA according to methods well known in the art. Cells were enumerated, spun down and resuspended in media containing no serum or, alternatively, in media containing 10% fetal calf serum. Cells were plated into the wells of a 96-well microarray according to the layout shown in FIG. 11 and described in Example 3 above. The seeding density was about 10,000 cells per well. Cells were incubated on the plates overnight at 37° C. The following day, media and any cells not adhering to the immobilized agents on the well surfaces were removed. Any adhered cells were fixed by exposure to forrnalin for at least 15 minutes. Propidium iodite was used to fluorescently label the nuclei of said fixed adhered cells. […]

[1] = no serum, FIG. 14, deviation from mid-point reference blend

Substance	effect on cell count (mixture-model analysis) (10% serum, FIG. 15)	effect on cell count (mixture-model analysis) [1]
laminin	positive effect on cell count	increase the cell count
poly-L-lysine [reference compound]	diminishes	marginal effect
Collagen IV	positive effect on cell count	increase the cell count
